Measurements taken from ChEMBL document CHEMBL1201862, “PubChem BioAssay data set” (2004).
Values belong to the compound of their own block, whether it stands above or below them. Activity calls are given as the source filed them.

Tests used:
[1] = target: Sphingosine 1-phosphate receptor 2 (Homo sapiens, UniProt O95136); test: Dose Response Cell Based Assay for Agonists of the S1P2 Receptor. [Related pubchem assays: 729, 736, 843 ]; type: functional
[2] = Luminescence-based cell-based high throughput dose response assay to identify activators of the DAF-12 from the parasite S. stercoralis (ssDAF-12).; type: functional
[3] = target: T1, Oxysterols receptor LXR-beta (Homo sapiens, UniProt P55055); test: LXR agonists, Gal4 luciferase reporter, dose response, counter-screen for ssDAF-12 agonist project, cell-based, luminescence, HEK293, S. stercoralis campaign (AID 720737); type: functional; details: read-out: IC50 (the source's name)
T1 sequence (P55055 whole entry): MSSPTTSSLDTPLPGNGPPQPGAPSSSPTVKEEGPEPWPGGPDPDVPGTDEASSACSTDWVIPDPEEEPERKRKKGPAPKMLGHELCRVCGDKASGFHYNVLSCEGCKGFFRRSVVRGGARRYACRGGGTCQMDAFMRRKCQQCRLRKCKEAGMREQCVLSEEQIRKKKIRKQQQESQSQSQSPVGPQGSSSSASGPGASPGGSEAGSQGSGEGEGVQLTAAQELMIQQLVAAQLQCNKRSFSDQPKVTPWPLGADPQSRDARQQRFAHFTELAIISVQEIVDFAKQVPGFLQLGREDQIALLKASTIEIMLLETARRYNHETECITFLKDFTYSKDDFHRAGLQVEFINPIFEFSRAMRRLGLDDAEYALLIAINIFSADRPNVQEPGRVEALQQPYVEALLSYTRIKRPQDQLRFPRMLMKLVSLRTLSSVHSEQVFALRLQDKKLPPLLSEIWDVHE

[4] = target: Genome polyprotein (dengue virus type 2, UniProt P29990); test: Dengue-2 NS5 methyltransferase inhibitors, primary screen, biochemical, confirmation dose response (AID 588689); type: functional
Genome polyprotein, sequence (P29990 2492-3391 limits assumed): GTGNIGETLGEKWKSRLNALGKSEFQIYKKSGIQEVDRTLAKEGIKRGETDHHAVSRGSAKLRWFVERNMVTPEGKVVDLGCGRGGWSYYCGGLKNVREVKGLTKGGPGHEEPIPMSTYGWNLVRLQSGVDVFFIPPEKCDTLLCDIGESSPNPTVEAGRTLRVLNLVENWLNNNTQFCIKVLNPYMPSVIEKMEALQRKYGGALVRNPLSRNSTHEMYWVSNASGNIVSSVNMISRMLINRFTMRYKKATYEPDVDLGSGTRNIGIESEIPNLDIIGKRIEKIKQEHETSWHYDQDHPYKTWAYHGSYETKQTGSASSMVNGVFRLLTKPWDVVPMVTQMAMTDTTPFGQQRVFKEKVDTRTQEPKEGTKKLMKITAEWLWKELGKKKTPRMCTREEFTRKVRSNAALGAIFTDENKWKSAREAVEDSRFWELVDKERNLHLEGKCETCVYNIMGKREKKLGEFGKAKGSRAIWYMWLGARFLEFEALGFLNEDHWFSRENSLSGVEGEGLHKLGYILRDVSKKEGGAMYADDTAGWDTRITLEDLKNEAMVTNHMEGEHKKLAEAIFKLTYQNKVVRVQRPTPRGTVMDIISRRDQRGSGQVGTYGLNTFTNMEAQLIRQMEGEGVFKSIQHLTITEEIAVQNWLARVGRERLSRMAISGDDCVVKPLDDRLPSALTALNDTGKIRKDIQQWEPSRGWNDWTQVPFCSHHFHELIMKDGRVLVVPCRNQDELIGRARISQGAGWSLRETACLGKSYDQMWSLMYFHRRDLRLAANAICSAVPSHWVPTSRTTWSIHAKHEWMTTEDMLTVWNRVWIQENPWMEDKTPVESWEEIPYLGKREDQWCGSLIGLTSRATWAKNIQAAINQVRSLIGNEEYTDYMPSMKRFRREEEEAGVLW

[5] = target: T2, Polyadenylate-binding protein 1 (Homo sapiens, UniProt P11940); test: PABP1 MLLE–PAM2 interaction inhibitors, dose response, miRNA deadenylation inhibitor project, biochemical, fluorescence polarization, Cy5-PAM2 peptide, secondary (AID 602260); type: functional; details: read-out: IC50_Mean
T2 sequence (P11940 whole entry): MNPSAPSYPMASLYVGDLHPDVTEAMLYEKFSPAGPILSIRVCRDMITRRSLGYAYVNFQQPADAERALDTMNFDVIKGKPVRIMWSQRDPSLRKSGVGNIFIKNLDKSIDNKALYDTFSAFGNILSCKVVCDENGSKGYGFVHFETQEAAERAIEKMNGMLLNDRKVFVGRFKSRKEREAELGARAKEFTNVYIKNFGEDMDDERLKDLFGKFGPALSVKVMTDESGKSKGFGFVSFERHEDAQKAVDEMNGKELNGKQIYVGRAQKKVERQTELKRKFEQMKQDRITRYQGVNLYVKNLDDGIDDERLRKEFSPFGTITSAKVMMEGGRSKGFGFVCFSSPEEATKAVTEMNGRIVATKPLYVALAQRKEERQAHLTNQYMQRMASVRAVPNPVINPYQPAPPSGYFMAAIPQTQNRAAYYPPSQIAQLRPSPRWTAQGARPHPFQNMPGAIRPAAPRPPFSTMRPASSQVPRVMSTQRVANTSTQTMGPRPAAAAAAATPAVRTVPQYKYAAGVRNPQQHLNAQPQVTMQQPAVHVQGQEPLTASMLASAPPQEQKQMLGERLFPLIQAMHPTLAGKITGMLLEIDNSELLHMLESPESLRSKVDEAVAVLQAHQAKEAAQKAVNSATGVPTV

[6] = target: T2, Polyadenylate-binding protein 1; test: PABP1 MLLE–PAM2 binding inhibitor potency, dose response, biochemical, fluorescence polarization, FITC-PAM2 peptide (AID 602259); type: functional; details: read-out: IC50_Mean
[7] = target: Caspase-6 (Homo sapiens, UniProt P55212); test: human caspase-6 inhibitors, dose response, biochemical, VEID-R110 fluorescence, cherry-pick (AID 720632)
Caspase-6, sequence (P55212 24-179 limits assumed): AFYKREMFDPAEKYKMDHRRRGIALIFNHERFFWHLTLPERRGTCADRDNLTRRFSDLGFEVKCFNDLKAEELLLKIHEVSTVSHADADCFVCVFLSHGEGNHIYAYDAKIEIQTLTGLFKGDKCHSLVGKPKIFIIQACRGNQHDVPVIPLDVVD
Caspase-6, sequence (P55212 194-293 limits assumed): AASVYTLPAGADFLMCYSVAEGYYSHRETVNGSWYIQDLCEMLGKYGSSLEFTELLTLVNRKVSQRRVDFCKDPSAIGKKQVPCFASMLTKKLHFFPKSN

[8] = target: T3, Calpain-2 catalytic subunit (Sus scrofa, UniProt P43367); test: pig calpain II inhibitor potency, dose response, biochemical, fluorogenic peptide substrate (AID 1420); type: functional
T3 sequence (P43367 whole entry): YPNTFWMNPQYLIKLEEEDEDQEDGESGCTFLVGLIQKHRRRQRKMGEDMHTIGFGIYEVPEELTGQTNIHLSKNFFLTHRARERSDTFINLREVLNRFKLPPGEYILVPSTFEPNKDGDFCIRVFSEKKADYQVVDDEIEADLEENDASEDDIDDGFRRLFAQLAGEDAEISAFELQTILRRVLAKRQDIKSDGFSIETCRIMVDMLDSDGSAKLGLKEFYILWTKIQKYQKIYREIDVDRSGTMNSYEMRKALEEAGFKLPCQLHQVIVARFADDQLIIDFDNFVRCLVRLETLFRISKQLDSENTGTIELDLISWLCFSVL

[9] = target: Ephrin type-A receptor 4 (Mus musculus, UniProt Q03137); test: inhibitors of EphA4 binding to KYL peptide, primary screen, biochemical, colorimetric, mouse EphA4 (AID 689); type: functional
Ephrin type-A receptor 4, sequence (Q03137 whole entry): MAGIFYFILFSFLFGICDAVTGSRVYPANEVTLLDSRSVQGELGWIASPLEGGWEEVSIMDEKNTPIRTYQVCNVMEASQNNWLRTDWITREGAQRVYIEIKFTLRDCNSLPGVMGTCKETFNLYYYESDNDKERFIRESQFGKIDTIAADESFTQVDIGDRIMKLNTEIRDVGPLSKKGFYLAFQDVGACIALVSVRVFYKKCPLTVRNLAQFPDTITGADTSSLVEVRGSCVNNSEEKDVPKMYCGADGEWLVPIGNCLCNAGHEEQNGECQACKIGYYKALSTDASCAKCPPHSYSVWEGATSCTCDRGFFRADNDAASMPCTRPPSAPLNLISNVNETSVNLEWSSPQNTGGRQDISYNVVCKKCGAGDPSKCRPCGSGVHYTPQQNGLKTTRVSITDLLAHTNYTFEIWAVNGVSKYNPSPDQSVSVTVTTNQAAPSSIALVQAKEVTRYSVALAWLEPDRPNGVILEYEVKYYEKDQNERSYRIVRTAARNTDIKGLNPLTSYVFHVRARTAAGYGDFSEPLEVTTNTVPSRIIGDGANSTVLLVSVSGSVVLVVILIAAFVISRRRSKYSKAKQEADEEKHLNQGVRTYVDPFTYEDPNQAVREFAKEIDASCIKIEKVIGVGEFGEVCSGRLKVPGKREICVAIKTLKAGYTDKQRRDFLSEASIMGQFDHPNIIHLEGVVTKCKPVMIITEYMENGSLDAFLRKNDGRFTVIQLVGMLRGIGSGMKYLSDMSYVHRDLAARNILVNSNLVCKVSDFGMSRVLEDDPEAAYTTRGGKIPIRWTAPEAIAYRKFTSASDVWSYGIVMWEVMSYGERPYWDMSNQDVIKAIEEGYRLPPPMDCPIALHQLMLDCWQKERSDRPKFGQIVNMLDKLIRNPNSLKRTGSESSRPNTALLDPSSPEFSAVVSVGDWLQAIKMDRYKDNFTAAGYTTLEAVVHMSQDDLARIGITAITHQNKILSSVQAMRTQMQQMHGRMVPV

[10] = Vero cell cytotoxicity, dose response, cytotoxicity control for Vif-APOBEC3G degradation inhibitor project, Vero cells (AID 1117358); type: functional; details: Human immunodeficiency virus 1, Vero
[11] = target: T4, Tyrosine-protein phosphatase non-receptor type 7 (Homo sapiens, UniProt P35236); test: inhibitors of human HePTP phosphatase, […], biochemical, absorbance, leukemia target (AID 521); type: functional
T4 sequence (P35236 whole entry): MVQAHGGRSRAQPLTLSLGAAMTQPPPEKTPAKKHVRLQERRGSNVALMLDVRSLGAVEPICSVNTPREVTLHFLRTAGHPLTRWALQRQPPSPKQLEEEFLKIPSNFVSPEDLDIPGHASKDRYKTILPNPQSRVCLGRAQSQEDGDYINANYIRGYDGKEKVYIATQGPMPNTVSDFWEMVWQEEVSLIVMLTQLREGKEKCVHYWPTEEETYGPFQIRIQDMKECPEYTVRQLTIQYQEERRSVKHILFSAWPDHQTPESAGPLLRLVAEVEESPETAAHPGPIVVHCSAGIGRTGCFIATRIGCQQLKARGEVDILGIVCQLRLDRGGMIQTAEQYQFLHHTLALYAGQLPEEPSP

[12] = target: NAD-dependent protein deacylase sirtuin-5, mitochondrial (Homo sapiens, UniProt Q9NXA8); test: SIRT5 deacylase inhibitors, dose response, biochemical, fluorescence imaging, cherry-pick, set 6 (AID 720597)
NAD-dependent protein deacylase sirtuin-5, mitochondrial, sequence (Q9NXA8 whole entry): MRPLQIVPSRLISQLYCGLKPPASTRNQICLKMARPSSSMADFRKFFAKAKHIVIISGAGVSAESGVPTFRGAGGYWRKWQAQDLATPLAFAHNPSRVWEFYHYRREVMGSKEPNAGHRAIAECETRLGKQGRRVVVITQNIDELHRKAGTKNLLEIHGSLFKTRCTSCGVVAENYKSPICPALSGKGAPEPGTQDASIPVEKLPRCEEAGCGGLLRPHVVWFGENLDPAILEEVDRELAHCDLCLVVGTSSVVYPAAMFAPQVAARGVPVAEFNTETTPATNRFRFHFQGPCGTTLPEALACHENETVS

[13] = inhibitors of Vif binding to APOBEC3G peptide, primary screen, biochemical, TR-FRET, GST-Vif 1-94, biotin-A3G peptide, dose response retest (AID 1117319); type: functional;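 further: TR-FRET signal of purified GST-Vif binding a biotinylated A3G peptide; inhibitors lower the FRET signal by blocking Vif and A3G binding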

Sphingosine 1-phosphate receptor 2, sequence (O95136 whole entry): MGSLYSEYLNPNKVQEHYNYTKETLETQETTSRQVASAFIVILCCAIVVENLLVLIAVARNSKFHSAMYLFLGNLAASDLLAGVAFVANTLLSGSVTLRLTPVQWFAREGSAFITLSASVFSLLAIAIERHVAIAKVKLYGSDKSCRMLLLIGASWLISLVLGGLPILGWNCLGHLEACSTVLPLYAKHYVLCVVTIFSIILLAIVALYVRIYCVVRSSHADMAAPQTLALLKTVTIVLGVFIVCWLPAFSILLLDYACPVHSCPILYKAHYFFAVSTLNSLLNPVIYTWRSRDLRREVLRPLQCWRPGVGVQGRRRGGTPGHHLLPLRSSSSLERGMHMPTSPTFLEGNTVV

Compound: COc1ccccc1CNC(=O)c1c(N)n(CCCN2CCOCC2)c2nc3ccccc3nc12
EC50 [1]: 3.9 µM (active)

Compound: Oc1ccccc1C1NN=C(c2ccccc2)S1 (stereo not drawn)
IC50 [2]: > 67.5 µM (inactive)
EC50 [3]: > 67.5 µM (inactive)

Compound: C[C@@H]1NC(=O)[C@H](CCC(N)=O)NC(=O)c2cc([N+](=O)[O-])cc(I)c2NCCC[C@@H](C(N)=O)NC1=O
IC50 [13]: > 100 µM (active)

Continued, in another order:

IC50 [4]: 7.79 µM (active)
IC50 [5]: > 66 µM (inactive)
IC50 [6]: > 66 µM (inactive)
AC50 [7]: 13.4 µM (active)
Compound: O=[N+]([O-])c1cc2ccccc2c(O)c1O

IC50 [8]: 11 µM (not active)
IC50 [9]: > 100 µM (not active)
Compound: COc1ccc(N(C(=O)c2ccco2)S(=O)(=O)c2cc(Cl)c(Cl)cc2Cl)cc1
CC50 [10]: > 40 µM (active)

IC50 [11]: > 100 µM (not active)
Compound: CCc1nnc(NC(=O)CSc2nnc(-c3ccoc3C)n2CC(C)C)s1

AC50 [12]: > 30 µM (inactive)
Compound: O=C(c1ccccc1F)N1C[C@H]2[C@@H](c3ccccc31)[C@@H](CO)N2CC1CCCCC1
